Measurements: US10077243B2, “Compounds for treating disorders mediated by metabotropic glutamate receptor 5, and methods of use thereof” (Sunovion Pharmaceuticals Inc., priority 2009, dated 2018)

Target: T1, human mGluR5 (Homo sapiens, UniProt P41594)
T1 construct: expressed in transfected cells; host or cells: HEK293 cells stably expressing rat GLAST (EAAT1), stably transfected with pcDNAzeo3.1 carrying synthetic human mGluR5 DNA; zeocin-selected single clones
Assay: In vitro cell-based FLIPR calcium assay for positive modulation of the activation of mGluR5 by glutamate (PAM EC50)
Details: HEK293/GLAST cells expressing recombinant human mGluR5; FLIPR calcium signal; glutamate added at its EC20; read-out: mGluR5 PAM EC50
Method in brief: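 HEK293/GLAST cells stably expressing mGluR5 were loaded with calcium-sensitive dye (25 °C, 45–60 min) in HBSS/20 mM HEPES. Test compounds were assayed in buffer containing glutamate at that day's EC20, with FLIPR fluorescence recorded. Controls contained 0.3% DMSO without compound.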

T1 sequence (P41594 21-1212): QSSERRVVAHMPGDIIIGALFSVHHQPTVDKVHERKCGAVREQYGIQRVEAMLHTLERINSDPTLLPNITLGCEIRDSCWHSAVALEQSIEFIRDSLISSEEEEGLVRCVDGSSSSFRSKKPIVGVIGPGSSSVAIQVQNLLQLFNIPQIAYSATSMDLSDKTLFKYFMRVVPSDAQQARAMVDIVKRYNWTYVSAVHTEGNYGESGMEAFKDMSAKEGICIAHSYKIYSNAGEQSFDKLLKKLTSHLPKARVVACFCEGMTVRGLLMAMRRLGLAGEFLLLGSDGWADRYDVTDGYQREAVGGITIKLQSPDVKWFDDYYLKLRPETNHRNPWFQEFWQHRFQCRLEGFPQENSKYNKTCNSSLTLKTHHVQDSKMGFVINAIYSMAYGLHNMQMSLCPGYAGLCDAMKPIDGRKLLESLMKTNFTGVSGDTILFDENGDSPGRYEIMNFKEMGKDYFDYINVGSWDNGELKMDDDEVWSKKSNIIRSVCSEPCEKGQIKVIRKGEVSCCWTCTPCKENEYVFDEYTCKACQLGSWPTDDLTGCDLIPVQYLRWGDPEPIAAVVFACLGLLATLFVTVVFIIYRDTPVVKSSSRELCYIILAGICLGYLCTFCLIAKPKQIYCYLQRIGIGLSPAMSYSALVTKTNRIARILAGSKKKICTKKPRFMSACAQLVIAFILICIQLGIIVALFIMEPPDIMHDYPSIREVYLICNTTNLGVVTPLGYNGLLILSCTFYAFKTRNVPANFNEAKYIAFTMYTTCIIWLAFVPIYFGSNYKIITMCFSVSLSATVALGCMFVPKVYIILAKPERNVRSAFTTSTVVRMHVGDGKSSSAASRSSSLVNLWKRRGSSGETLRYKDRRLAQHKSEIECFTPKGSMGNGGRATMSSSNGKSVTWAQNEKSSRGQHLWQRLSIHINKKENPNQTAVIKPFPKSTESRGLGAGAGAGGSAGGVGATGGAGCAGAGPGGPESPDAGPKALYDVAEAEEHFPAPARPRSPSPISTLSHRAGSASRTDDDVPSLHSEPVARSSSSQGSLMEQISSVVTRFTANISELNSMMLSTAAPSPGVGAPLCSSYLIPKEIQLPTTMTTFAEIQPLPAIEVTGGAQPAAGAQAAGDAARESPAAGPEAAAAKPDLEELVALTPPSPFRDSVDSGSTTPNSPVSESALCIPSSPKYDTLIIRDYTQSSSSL

O=c1c2ccc(C#Cc3cccc(F)c3)cc2nc2n1CCCC2Cc1ccccc1 (stereo not drawn) [Example 4.9, 6-benzyl-3-((3-fluorophenyl)ethynyl)-8,9-dihydro-6H-pyrido[2,1-b]quinazolin-11(7H)-one]
EC50: 0.1 to 0.3 µM

CN1CCCc2nc3cc(C#Cc4ccc(F)cc4)ccc3c(=O)n2CC1 [Example 10.2, 9-((4-fluorophenyl)ethynyl)-3-methyl-3,4,5,6-tetrahydro-1H-[1,4]diazocino[8,1-b]quinazolin-12(2H)-one]
EC50: 0.03 to 0.1 µM

CC1(C)CCn2c(nc3cc(/C=C/c4ccccc4F)ccc3c2=O)C1 [Example 20.6, (E)-3-(2-fluorostyryl)-7,7-dimethyl-8,9-dihydro-6H-pyrido[2,1-b]quinazolin-11(7H)-one]
EC50: 0.03 to 0.1 µM

O=c1c2ccc(C#Cc3ccccn3)cc2nc2n1CCN(CCC(F)(F)F)CC2 [Example 8.21, 8-(pyridin-2-ylethynyl)-3-(3,3,3-trifluoropropyl)-2,3,4,5-tetrahydro-[1,4]diazepino[7,1-b]quinazolin-11(1H)-one]
EC50: 0.1 to 0.3 µM

CC1CCc2nc3cc(C#Cc4ccccn4)cnc3c(=O)n2CC1 (stereo not drawn) [Example 11.9, 8-methyl-3-(pyridin-2-ylethynyl)-7,8,9,10-tetrahydropyrido[3′,2′:4,5]pyrimido[1,2-a]azepin-12(6H)-one]
EC50: 0.01 to 0.03 µM

CC(=O)N1CCc2nc3cc(C#Cc4cccc(F)c4)ccc3c(=O)n2CC1 [Example 8.17, 3-acetyl-8-((3-fluorophenyl)ethynyl)-2,3,4,5-tetrahydro-[1,4]diazepino[7,1-b]quinazolin-11(1H)-one]
EC50: 0.1 to 0.3 µM

CN1CCc2nc3cc(C#Cc4ccc(F)cc4)ccn3c(=O)c2CC1 [Example 16.7, 8-((4-fluorophenyl)ethynyl)-3-methyl-2,3,4,5-tetrahydropyrido[1′,2′:1,2]pyrimido[4,5-d]azepin-12(1H)-one]
EC50: 0.3 to 1 µM

CC1(C)CCn2c(nc3cc(C#Cc4cccc(F)c4)ccc3c2=O)C1 [Example 4.13, 3-((3-fluorophenyl)ethynyl)-7,7-dimethyl-8,9-dihydro-6H-pyrido[2,1-b]quinazolin-11(7H)-one]
EC50: < 0.01 µM

O=c1c2ccc(C#Cc3ccccn3)cc2nc2n1CCCCN2 [Example 8.25, 10-(pyridin-2-ylethynyl)-2,3,4,5-tetrahydro-[1,3]diazepino[2,1-b]quinazolin-7(1H)-one]
EC50: 0.01 to 0.03 µM

CCC(C)N1CCn2c(nc3cc(C#Cc4cccc(F)c4)ccc3c2=O)C1 (stereo not drawn) [Example 5.6, 2-(sec-butyl)-9-((3-fluorophenyl)ethynyl)-3,4-dihydro-1H-pyrazino[2,1-b]quinazolin-6(2H)-one]
EC50: 0.1 to 0.3 µM

CC1(C)CCn2c(nc3cc(C#Cc4ccccn4)ccc3c2=O)C1 [Example 4.15, 7,7-dimethyl-3-(pyridin-2-ylethynyl)-8,9-dihydro-6H-pyrido[2,1-b]quinazolin-11(7H)-one]
EC50: < 0.01 µM

O=c1c2ncc(C#Cc3ccccn3)cc2nc2n1CCCCC2 [Example 11.8, 3-(pyridin-2-ylethynyl)-7,8,9,10-tetrahydropyrido[3′,2′:4,5]pyrimido[1,2-a]azepin-12(6H)-one]
EC50: 0.1 to 0.3 µM

O=c1c2ccc(C#Cc3cccc(F)c3)cc2nc2n1CC1CCCCN1C2 (stereo not drawn) [Example 5.19, 3-((3-fluorophenyl)ethynyl)-8,9,10,11,11a,12-hexahydropyrido[1′,2′:4,5]pyrazino[2,1-b]quinazolin-14(6H)-one]
EC50: 0.3 to 1 µM

O=c1c2ccc(C#Cc3ccccn3)cc2nc2n1CCN1CCCC1C2 (stereo not drawn) [Example 9.5, 11-(pyridin-2-ylethynyl)-2,3,5,6,14,14a-hexahydropyrrolo[1′,2′:4,5][1,4]diazepino[7,1-b]quinazolin-8(1H)-one]
EC50: 0.1 to 0.3 µM

COCC1Cc2nc3cc(C#Cc4ccccn4)ccc3c(=O)n2C1 (stereo not drawn) [Example 3.19, 2-(methoxymethyl)-6-(pyridin-2-ylethynyl)-2,3-dihydropyrrolo[2,1-b]quinazolin-9(1H)-one]
EC50: 0.03 to 0.1 µM

CC1(C)Cn2c(nc3cc(C#Cc4ccccn4)ccc3c2=O)CO1 [Example 4.40, 3,3-dimethyl-9-(pyridin-2-ylethynyl)-3,4-dihydro-[1,4]oxazino[3,4-b]quinazolin-6(1H)-one]
EC50: 0.01 to 0.03 µM

CN(C)Cc1nc2cc(C#Cc3cccc(F)c3)ccc2c(=O)n1C [Example 2.7, 2-((dimethylamino)methyl)-7-((3-fluorophenyl)ethynyl)-3-methylquinazolin-4(3H)-one]
EC50: 0.03 to 0.1 µM

C=C1CCc2nc3cc(C#Cc4cccc(F)c4)ccc3c(=O)n2C1 [Example 4.28, 3-((3-fluorophenyl)ethynyl)-8-methylene-8,9-dihydro-6H-pyrido[2,1-b]quinazolin-11(7H)-one]
EC50: 0.01 to 0.03 µM

O=c1c2ccc(C#Cc3cccc(F)c3)cc2nc2n1CCN(CC1CCCO1)CC2 (stereo not drawn) [Example 8.16, 8-((3-fluorophenyl)ethynyl)-3-((tetrahydrofuran-2-yl)methyl)-2,3,4,5-tetrahydro-[1,4]diazepino[7,1-b]quinazolin-11(1H)-one]
EC50: 0.1 to 0.3 µM

O=c1c2ccc(C#Cc3ccccc3F)cc2nc2n1CCC1(CC2)OCCO1 [Example 7.2]
EC50: 0.03 to 0.1 µM

CC1(C)CCn2c(nc3cc(/C=C/c4ccccn4)ccc3c2=O)C1 [Example 20.7]
EC50: 0.01 to 0.03 µM

COCC1CCc2nc3cc(C#Cc4ccccn4)ccc3c(=O)n21 (stereo not drawn) [Example 3.7, 1-(methoxymethyl)-6-(pyridin-2-ylethynyl)-2,3-dihydropyrrolo[2,1-b]quinazolin-9(1H)-one]
EC50: 0.03 to 0.1 µM

CCc1ccc(C#Cc2ccc3c(=O)n4c(nc3c2)CCCCC4)cc1 [Example 6.3, 3-((4-ethylphenyl)ethynyl)-7,8,9,10-tetrahydroazepino[2,1-b]quinazolin-12(6H)-one]
EC50: 0.1 to 0.3 µM

CC1(C)CCCc2nc3cc(C#Cc4ccccn4)ccc3c(=O)n2C1 [Example 6.43, 9,9-dimethyl-3-(pyridin-2-ylethynyl)-7,8,9,10-tetrahydroazepino[2,1-b]quinazolin-12(6H)-one]
EC50: 0.01 to 0.03 µM

O=c1c2ccc(C#Cc3nccs3)cc2nc2n1CCC1(CC2)OCCO1 [Example 7.60]
EC50: 0.3 to 1 µM

CC1CCc2nc3cc(C#Cc4ccccn4)ccc3c(=O)n2CC1 (stereo not drawn) [Example 6.9, 8-methyl-3-(pyridin-2-ylethynyl)-7,8,9,10-tetrahydroazepino[2,1-b]quinazolin-12(6H)-one]
EC50: < 0.01 µM

CC1Cn2c(nc3cc(C#Cc4ccccn4)ccc3c2=O)CCN1C (stereo not drawn) [Example 8.30, 2,3-dimethyl-8-(pyridin-2-ylethynyl)-2,3,4,5-tetrahydro-[1,4]diazepino[7,1-b]quinazolin-11(1H)-one]
EC50: 0.1 to 0.3 µM

O=c1c2ccc(C#Cc3cccc(F)c3)cc2nc2n1CC(CO)CC2 (stereo not drawn) [Example 4.31, 3-((3-fluorophenyl)ethynyl)-8-(hydroxymethyl)-8,9-dihydro-6H-pyrido[2,1-b]quinazolin-11(7H)-one]
EC50: < 0.01 µM

CC1CCn2c(nc3cc(C#Cc4ccccn4)ccc3c2=O)C1 (stereo not drawn) [Example 4.11, 7-methyl-3-(pyridin-2-ylethynyl)-8,9-dihydro-6H-pyrido[2,1-b]quinazolin-11(7H)-one]
EC50: 0.03 to 0.1 µM

O=c1c2ccc(/C=C/c3ccccc3)cc2nc2n1CCCCC2 [Example 20.2, (E)-3-styryl-7,8,9,10-tetrahydroazepino[2,1-b]quinazolin-12(6H)-one]
EC50: < 0.01 µM

O=c1c2ccc(C#Cc3cccnc3)cc2nc2n1CCC1(CC2)OCCO1 [Example 7.11]
EC50: 0.3 to 1 µM

O=c1c2ccc(C#Cc3cccc(F)c3)cc2nc2n1CC/C(=N\O)CC2 [Example 6.23, 3-((3-fluorophenyl)ethynyl)-8-(hydroxyimino)-7,8,9,10-tetrahydroazepino[2,1-b]quinazolin-12(6H)-one]
EC50: 0.03 to 0.1 µM

CCCn1cnc2cc(C#Cc3cccc(F)c3)ccc2c1=O [Example 1.7, 7-((3-fluorophenyl)ethynyl)-3-propylquinazolin-4(3H)-one]
EC50: 0.01 to 0.03 µM

Cc1cnc(NC(=O)c2ccc3c(=O)n4c(nc3c2)CCOCC4)s1 [Example 23.2, N-(5-methylthiazol-2-yl)-11-oxo-2,4,5,11-tetrahyrdo-1H-[1,4]oxazepino[5,4-b]quinazoline-8-carboxamide]
EC50: 0.1 to 0.3 µM

CNC(=O)CN1CCc2nc3cc(C#Cc4cccc(F)c4)ccc3c(=O)n2CC1 [Example 8.15, 2-(8-((3-fluorophenyl)ethynyl)-11-oxo-1,2,4,5-tetrahydro-[1,4]diazepino[7,1-b]quinazolin-3(11H)-yl)-N-methylacetamide]
EC50: 0.1 to 0.3 µM

O=c1c2ccc(C#Cc3ccccn3)cc2nc2n1CC1CC21 (stereo not drawn) [Example 4.27, 4-(pyridin-2-ylethynyl)-9,9a-dihydro-1H-cyclopropa[3,4]pyrrolo[2,1-b]quinazolin-7(1aH)-one]
EC50: 0.03 to 0.1 µM

CC1CCc2nc3cc(/C=C/c4ccccn4)ccc3c(=O)n2CC1 (stereo not drawn) [Example 20.3, (E)-8-methyl-3-(2-(pyridin-2-yl)vinyl)-7,8,9,10-tetrahydroazepino[2,1-b]quinazolin-12(6H)-one]
EC50: 0.1 to 0.3 µM

COCCn1cnc2cc(C#Cc3ccncc3)ccc2c1=O [Example 1.17, 3-(2-methoxyethyl)-7-(pyridin-4-ylethynyl)quinazolin-4(3H)-one]
EC50: 0.1 to 0.3 µM

CN1CCc2nc3cc(C#Cc4cccc(F)c4)ccc3c(=O)n2CC1 [Example 8.7, 8-((3-fluorophenyl)ethynyl)-3-methyl-2,3,4,5-tetrahydro-[1,4]diazepino[7,1-b]quinazolin-11(1H)-one]
EC50: 0.03 to 0.1 µM

O=c1c2ccc(C#Cc3cccc(F)c3)cc2nc2n1CCCC2 [Example 4.4]
EC50: < 0.01 µM

O=c1c2ccc(CCc3ccccc3)cc2nc2n1CCCCC2 [Example 21.1, 3-phenethyl-7,8,9,10-tetrahydroazepino[2,1-b]quinazolin-12(6H)-one]
EC50: 0.1 to 0.3 µM

Cc1cccc(C#Cc2ccc3c(=O)n4c(nc3c2)CCC2(CC4)OCCO2)c1 [Example 7.31]
EC50: 0.1 to 0.3 µM
